Laboratory results reported in paper PMC12339163, “Combining Plant Bioactives With Antibiotics for Enhanced Antibiofilm Activity Against Uropathogenic Staphylococcus spp. and Cytotoxicity Evaluation” (Advances in Pharmacological and Pharmaceutical Sciences, 2025).
Values joined by “and” are separate entries in the source; they are usually repeats but may differ in a detail not shown here. Equal entries are not always repeated.

Columns and labels:
[1] = system: planktonic cells of Staphylococcus epidermidis; assay: Checkerboard combination assay, planktonic cells; type: cell-based; conditions: planktonic S. epidermidis, mean MIC; for MIC alone, NPs: natural product alone, in µg/mL; for MIC alone, ATB: antibiotic alone
S. epidermidis biofilm = assay: Biofilm inhibition assay (MBIC, MTT); type: cell-based, Staphylococcus epidermidis; conditions: geometric mean, S. epidermidis (n = 3); for minimal effective concentration: Staphylococcus epidermidis, 24 h
Method: The biofilm formation inhibitory activity of NPs and ATBs was carried out according to the method previously described. A total of 100 µL of bacterial inoculum (1.5 × 10^6 CFU/mL) was used, and 100 µL of each sample was added to the microplate to achieve final concentrations ranging from 0.25 µg/mL to 128 µg/mL for ATBs and from 8 µg/mL to 1024 µg/mL for NPs. Then, the microplate was incubated at 37°C for 24 h. After incubation, the plates were gently emptied and washed three times with a phosphate buffer solution at pH 7.2. Then, the MTT solution (0.5 mg/mL) prepared in PBS was introduced into each well, and the microplate was further incubated at 37°C for 24 h. Untreated wells containing bacterial suspension and MHB supplemented with 1% glucose were considered positive controls, and wells containing only MHB+1% glucose without bacteria were used as blanks. After incubation, the MTT solution was aspirated, then 150 µL of DMSO was introduced to dissolve the formazan crystal formed by viable bacteria, and the optical density (OD) was measured at 570 nm using a microplate reader (VERSA-max). The percentage of biofilm inhibition was calculated using the formula below, and the minimal biofilm inhibitory concentration (MBIC) was recorded as the lowest concentration of NPs or ATBs that inhibited 100% of biofilm:(1) % biofilm inhibition=ODcontrol−ODblank−ODtest−ODblank/ODcontrol−ODblank×100.

S. saprophyticus biofilm = assay: Biofilm eradication assay (MBEC, MTT); type: cell-based, Staphylococcus saprophyticus; conditions: geometric mean, S. saprophyticus (n = 3); for minimal effective concentration: Staphylococcus saprophyticus, 24 h
Method: The determination of the biofilm eradication potential of NPs and ATBs was performed as previously described. Briefly, 100 µL of bacterial inoculum (1.5 × 10^6 CFU/mL) and 100 µL of MHB + 1% glucose were introduced into the microplate, incubated at 37°C for 24 h, and the microplate was gently emptied and washed three times with PBS. Then, 200 µL of ATBs or NPs at respective concentrations ranging from 8 to 1024 µg/mL and from 16 to 2048 µg/mL were incubated at 37°C for 24 h. Once incubation was completed, the microplate was processed as described above, and the percentage of biofilm eradication was calculated using the formula below. The minimal biofilm eradicating concentration (MBEC) was recorded as the lowest concentration of the test sample that reduces 100% of biofilm:(2) % biofilm eradication=ODcontrol−ODblank−ODtest−ODblank/ODcontrol−ODblank×100.

[2] = system: Staphylococcus aureus biofilm; assay: Checkerboard combination assay, biofilm inhibition; type: cell-based; conditions: for MBIC alone, ATB: antibiotic alone
Method: (§1) The effect of the combination of ATBs with NPs on biofilm formation was evaluated by determining the FICI, as described above for planktonic cells, except that the MHB was supplemented with 1% glucose.
(§2) The lowest MBICs of ATBs or NPs that inhibited metabolic activity in the biofilm were determined as described above. The FICI was used to perform the effect of combination and calculated as follows: FICI: (MBIC of ATBs in combinations/MBIC of ATBs alone) + (MBIC of NP in the combinations/MBIC of NP alone). FICI was interpreted as indicated above.

[3] = system: Staphylococcus saprophyticus biofilm; assay: Checkerboard combination assay, biofilm inhibition; type: cell-based
Method: as §1, §2

[4] = system: Staphylococcus epidermidis biofilm; assay: Checkerboard combination assay, biofilm inhibition; type: cell-based
Method: as §1, §2

[5] = system: Staphylococcus aureus biofilm; assay: Checkerboard combination assay, biofilm eradication; type: cell-based; conditions: for MBEC Alone ATB: antibiotic alone
Method: (§3) The effect of the combination of ATBs with NPs on the preformed biofilm was evaluated by determining the FICI, as described above for biofilm formation, with slight modifications. After biofilm formation for 24 h, the plate was gently emptied and washed three times with PBS. Then, 50 µL of ATBs and 50 µL of NPs were introduced to the plate. The final concentration ranges from 0.0625 to 128 µg/mL and from 4 to 512 µg/mL for ATBs and NPs, respectively, and is incubated at 37°C for 24 h. After incubation, the medium was gently removed, and the plate was washed three times with PBS. At the end of the incubation time, the MTT reduction assay was performed, and the MBEC was determined. To assess the effect of the combination, the FICI was calculated and interpreted as described above.

[6] = system: Staphylococcus epidermidis biofilm; assay: as above; type: cell-based; conditions: for MBEC Alone ATB: antibiotic alone
Method: as §3

[7] = system: Staphylococcus saprophyticus biofilm; assay: as above; type: cell-based
Method: as §3

[8] = natural product alone, S. aureus biofilm inhibition
[9] = natural product alone, S. saprophyticus biofilm inhibition
[10] = natural product alone, S. epidermidis biofilm inhibition
[11] = S. saprophyticus, biofilm inhibition, mean
[12] = antibiotic alone, S. saprophyticus biofilm inhibition
[13] = S. epidermidis, biofilm inhibition, mean
[14] = antibiotic alone, S. epidermidis biofilm inhibition
[15] = S. aureus biofilm eradication, mean MBEC
[16] = S. saprophyticus biofilm eradication, antibiotic alone, mean MBEC
[17] = S. epidermidis biofilm eradication, mean MBEC
[18] = S. aureus, biofilm inhibition, mean
[19] = S. saprophyticus, biofilm eradication, mean
[20] = S. aureus, biofilm eradication, mean

Row | SMILES | minimal effective concentration (S. epidermidis biofilm) [µg/mL] | minimal effective concentration (S. saprophyticus biofilm) [µg/mL] | MBIC alone, NPs [2, 8] [µg/mL] | MBIC alone, NPs [3, 9] [µg/mL] | MBIC alone, NPs [4, 10] [µg/mL] | MIC alone, ATB [1] [µg/mL] | MBIC alone, ATB ([2]; S. aureus biofilm inhibition) [µg/mL] | MBIC alone, ATB [3, 12] [µg/mL] | MBEC Alone ATB [5, 15] [µg/mL] | MBEC Alone ATB [7, 16] [µg/mL] | MBEC Alone ATB [6, 17] [µg/mL] | MBIC alone, NPs [3, 11] [µg/mL] | MBIC alone, NPs [4, 13] [µg/mL] | MBEC Alone NPs [7, 19] [µg/mL] | other results
1 | O=C(O)c1cc(O)c(O)c(O)c1 [Gallic acid, 3,4,5-trihydroxybenzoic acid] | 512 | 299 | 512 | 426.66 | 512 | – | – | – | – | – | – | – | – | – | MIC alone, NPs ([1]; listed as Gal): 426.66 and 277.33; MBEC Alone NPs ([5]; S. aureus biofilm eradication, natural product alone, mean MBEC): 298.66 µg/mL; MBEC Alone NPs ([6]; S. epidermidis biofilm eradication, natural product alone, mean MBEC, listed as Gal): 266.66 µg/mL and 298.66 µg/mL and 426.66 µg/mL
2 | CC1(C)S[C@@H]2[C@H](NC(=O)[C@H](N)c3ccc(O)cc3)C(=O)N2[C@H]1C(=O)O [Amoxicillin, amoxicillin] | 2.08 | 9.33 | – | – | – | 26.8 | 1.5 | 8.33 | 37.33 | 9.33 | 16 | – | – | – | MBIC alone, ATB [3, 11]: 8.33 µg/mL; MBIC alone, ATB [4, 13]: 2.08 µg/mL; MBIC alone, ATB [4, 14]: 2.08 µg/mL
3 | O=c1c(O)c(-c2ccc(O)c(O)c2)oc2cc(O)cc(O)c12 [Quercetin, quercetin] | 512 | 171 | – | – | – | – | – | – | – | – | – | – | – | – | MIC alone, NPs ([1]; listed as Que): 512 and 362.66; MBIC alone, NPs ([2]; natural product alone, S. aureus biofilm inhibition, listed as Que): 426.66 µg/mL and 512 µg/mL and 362.66 µg/mL; MBIC alone, NPs ([3]; natural product alone, S. saprophyticus biofilm inhibition, listed as Que): 426.66 µg/mL and 512 µg/mL; MBIC alone, NPs ([4]; natural product alone, S. epidermidis biofilm inhibition, listed as Que): 512 µg/mL and 384 µg/mL
4 | CC1=CC(=O)c2c(O)cccc2C1=O [Plumbagin, plumbagin] | 8 | 10.7 | – | 6.66 | 8 | – | – | – | – | – | – | 16 | 8 | 10.66 | MBIC alone, NPs [2, 18]: 10.66 µg/mL; MBIC alone, NPs ([2]; natural product alone, S. aureus biofilm inhibition, listed as Pb): 10.66 µg/mL; MBEC Alone NPs ([6]; S. epidermidis, biofilm eradication, mean, listed as Plu): 13.33 µg/mL and 16 µg/mL
5 | NC[C@H]1O[C@H](O[C@H]2[C@H](O)[C@@H](O[C@H]3O[C@H](CO)[C@@H](O)[C@H](N)[C@H]3O)[C@H](N)C[C@@H]2N)[C@H](O)[C@@H](O)[C@@H]1O [Kanamycin, kanamycin] | – | – | – | – | – | 7.33 | 1.83 | 4.083 | 14.66 | 10.66 | 13.33 | – | – | – | MBIC (S. epidermidis biofilm): 24.66 µg/mL; MBEC (S. saprophyticus biofilm): 10.66 µg/mL; MBIC alone, ATB [3, 11]: 4.08 µg/mL; MBIC alone, ATB [4, 13]: 24.66 µg/mL; MBIC alone, ATB ([4]; antibiotic alone, S. epidermidis biofilm inhibition, listed as Kan): 24.66 µg/mL and 43.33 µg/mL
6 | COc1ccc2cc3[n+](cc2c1OC)CCc1cc2c(cc1-3)OCO2 [Berberine, berberine] | – | 171 | 170.66 | – | – | – | – | – | – | – | – | 106.66 | – | 128 | MBIC alone, NPs ([3]; natural product alone, S. saprophyticus biofilm inhibition, listed as Ber): 74.66 µg/mL and 85.33 µg/mL and 106.66 µg/mL; MBEC Alone NPs [5, 20]: 149.33 µg/mL; MBEC Alone NPs ([7]; S. saprophyticus biofilm eradication, natural product alone, mean MBEC, listed as Ber): 128 µg/mL and 85.33 µg/mL and 106.66 µg/mL and 170.66 µg/mL; MBEC Alone NPs ([6]; S. epidermidis biofilm eradication, natural product alone, mean MBEC, listed as Ber): 170.66 µg/mL and 149.33 µg/mL and 213.33 µg/mL
7 | C=CC1=C(C(=O)O)N2C(=O)[C@@H](NC(=O)/C(=N\OCC(=O)O)c3csc(N)n3)[C@H]2SC1 [Cefixime, cefixime] | 64 | 48 | – | – | – | 107 | 64 | 48 | 42.66 | 48 | 42.66 | – | – | – | MBIC alone, ATB [4, 14]: 64 µg/mL; MBEC Alone ATB [7, 19]: 48 µg/mL
8 | Cc1ccc(C(C)C)c(O)c1 [Thymol, thymol] | 213 | 107 | 341.33 | 128 | 213.33 | – | – | – | – | – | – | 128 | 213.33 | 128 | MIC alone, NPs [1]: 426.66; MBIC alone, NPs [2, 18]: 341.33 µg/mL; MBEC Alone NPs ([6]; S. epidermidis biofilm eradication, natural product alone, mean MBEC, listed as Thy): 128 µg/mL and 106.66 µg/mL
9 | COc1cc(/C=C/C(=O)CC(=O)/C=C/c2ccc(O)c(OC)c2)ccc1O [Curcumin, curcumin] | 128 | 171 | – | – | 128 | – | – | – | – | – | – | 106.66 | 128 | – | MIC alone, NPs [1]: 384; MBEC Alone NPs ([5]; S. aureus biofilm eradication, natural product alone, mean MBEC, listed as Cur): 128 µg/mL and 149.33 µg/mL and 170.66 µg/mL and 106.66 µg/mL; MBEC Alone NPs [5, 20]: 277.33 µg/mL; MBEC Alone NPs ([7]; S. saprophyticus biofilm eradication, natural product alone, mean MBEC, listed as Cur): 170.66 µg/mL and 213.33 µg/mL; MBEC Alone NPs ([6]; S. epidermidis biofilm eradication, natural product alone, mean MBEC, listed as Cur): 106.66 µg/mL and 128 µg/mL
